{
  "source": "patent US20250325531A1",
  "about": "“TREATMENT OF SYSTOLIC DYSFUNCTION” (MyoKardia, Inc., priority 2024, published 2025)",
  "tested_on": "healthy volunteers",
  "assay": "Safety and tolerability in food effect study, healthy volunteers",
  "format": "in vivo, human",
  "conditions": "200 mg",
  "procedure": "ECG was performed as described in Example 1. The following intervals were measured: RR, PR, QRS, and QT. Heart rate (HR) was calculated as […] (with RR expressed in msec) and rounded to the nearest integer. Each individual ECG QT value was corrected for HR. The measured QT data was corrected for HR using the Fridericia method (QTcF) as per the following formulae/method (with QT, RR and QTc expressed in ms): […]\nThe Investigator or designee monitored the continuous ECG telemetry data and correlated the finding(s) with any other clinical findings, study participant's medical history, study participant's clinical status and laboratory data to determine the clinical importance of the finding.\nSerum troponin-I concentrations were determined as described in Example 1. Abnormal and/or rising troponin values (as per Investigator's judgment and taking into account potential Baseline troponin elevation) led to the subject being clinically evaluated for possible myocardial ischemia. […] The entire clinical context would be evaluated (e.g., signs, symptoms, new ECG changes, new troponin, and CK-MB abnormalities) and correlated with any other relevant clinical findings, the subject's medical history, and laboratory data to determine the clinical significance of the findings.",
  "data": [
    {"smiles": "Cn1cc(S(=O)(=O)[C@@](C)(F)C2CCN(C(=O)Nc3ccon3)CC2)c(C(F)F)n1", "note": "[Compound I, (R)-4-(1-((3-(difluoromethyl)-1-methyl-1H-pyrazol-4-yl)sulfonyl)-1-fluoroethyl)-N-(isoxazol-3-yl) piperidine-1-carboxamide]", "values": [
      {"measurement": "abnormal ECG results", "setting": "fasted state", "value": "3 (30.0%) n (%)"},
      {"measurement": "drug-related headache, subjects", "setting": "fasted state", "value": 3, "unit": "subjects"},
      {"measurement": "headache, subjects", "setting": "fasted state", "value": 4, "unit": "subjects"},
      {"measurement": "Cardiac disorders, subjects", "setting": "fasted state (1 sinus tachycardia and 1 ventricular tachycardia)", "value": 2, "unit": "subjects"},
      {"measurement": "abnormal ECG results", "setting": "fed state", "value": "2 (20.0%) n (%)"},
      {"measurement": "drug-related headache, subjects", "setting": "fed state", "value": 1, "unit": "subject"},
      {"measurement": "headache, subjects", "setting": "fed state", "value": 1, "unit": "subject"},
      {"measurement": "Cardiac disorders, subjects", "setting": "fed state (palpitations)", "value": 1, "unit": "subject"}
    ]}
  ]
}
